Assays:
Assay type in all cases: in vivo, human
[1] = tested on: Healthy subjects, ages 13-18; assay: Positive and Negative Affect Scale for Children (PANAS-C)
From the text: Study participants were screened by telephone prior to study enrollment. Healthy subjects, ages 13-18, with no significant medical conditions and no history of co-morbid psychiatric disorder, current Axis I or II diagnosis, or previous participation in a pharmacotherapeutic trial, were selected. Use of any psychotropic medication or any previous head injury resulting in loss of consciousness for 5 or more minutes were used as exclusion criteria. While no participant met criteria for a neuropsychiatric disorder at enrollment, clinical assessments were still completed throughout the study to evaluate changes in mood state. In addition, self-reports of sleep habits, lifestyle, and exercise routines were also administered at baseline as well as at each study visit to assess changes in health habits during study participation. Following the completion of Visit 1 assessment, participants were given their 28-day supply of citicoline (250 mg or 500 mg) or placebo, which was randomly assigned. They were instructed to take one capsule a day every day for the next 28 days. Visit 2 occurred fourteen days after Visit 1. At Visit 2, the remaining study pills were counted and participant dosage calendars were checked to ensure compliance with the protocol. Additional neuropsychological measures and clinical assessments were administered during this visit. Participants returned for Visit 3 fourteen days later, on the 28th day of their study participation. The pill bottle and the dosage calendar were collected from each participant. Urine and blood were again obtained. Participants also participated in similar clinical and neuropsychological testing and clinical measures that were given during visit 1. The […] is a self-report questionnaire on which participants rate to what extent they are currently experiencing a variety of positive and negative emotions such as “excited” and “mad.” The PANAS was administered during each of the three visits to assess participant affect prior to taking the study drug as well as after taking the study drug over a period of 28 days.

[2] = tested on: Healthy subjects, ages 13-18; assay: Pittsburgh Sleep Quality Index (PSQI); conditions: for PSQI Score, Mean: V3-V1
From the text: Study participants were screened by telephone prior to study enrollment. Healthy subjects, ages 13-18, with no significant medical conditions and no history of co-morbid psychiatric disorder, current Axis I or II diagnosis, or previous participation in a pharmacotherapeutic trial, were selected. Use of any psychotropic medication or any previous head injury resulting in loss of consciousness for 5 or more minutes were used as exclusion criteria. While no participant met criteria for a neuropsychiatric disorder at enrollment, clinical assessments were still completed throughout the study to evaluate changes in mood state. In addition, self-reports of sleep habits, lifestyle, and exercise routines were also administered at baseline as well as at each study visit to assess changes in health habits during study participation. Following the completion of Visit 1 assessment, participants were given their 28-day supply of citicoline (250 mg or 500 mg) or placebo, which was randomly assigned. They were instructed to take one capsule a day every day for the next 28 days. Visit 2 occurred fourteen days after Visit 1. At Visit 2, the remaining study pills were counted and participant dosage calendars were checked to ensure compliance with the protocol. Additional neuropsychological measures and clinical assessments were administered during this visit. Participants returned for Visit 3 fourteen days later, on the 28th day of their study participation. The pill bottle and the dosage calendar were collected from each participant. Urine and blood were again obtained. Participants also participated in similar clinical and neuropsychological testing and clinical measures that were given during visit 1. The PSQI is a self-report sleep questionnaire designed to assess usual sleep habits during the past month. The PSQI was administered at each of the three study visits to assess alterations to sleep quality during the 28 days of study participation.

[3] = tested on: Healthy subjects, ages 13-18; assay: Wisconsin Card Sorting Task (WCST); conditions: Visit 3
From the text: Study participants were screened by telephone prior to study enrollment. Healthy subjects, ages 13-18, with no significant medical conditions and no history of co-morbid psychiatric disorder, current Axis I or II diagnosis, or previous participation in a pharmacotherapeutic trial, were selected. Use of any psychotropic medication or any previous head injury resulting in loss of consciousness for 5 or more minutes were used as exclusion criteria. While no participant met criteria for a neuropsychiatric disorder at enrollment, clinical assessments were still completed throughout the study to evaluate changes in mood state. In addition, self-reports of sleep habits, lifestyle, and exercise routines were also administered at baseline as well as at each study visit to assess changes in health habits during study participation. Following the completion of Visit 1 assessment, participants were given their 28-day supply of citicoline (250 mg or 500 mg) or placebo, which was randomly assigned. They were instructed to take one capsule a day every day for the next 28 days. Visit 2 occurred fourteen days after Visit 1. At Visit 2, the remaining study pills were counted and participant dosage calendars were checked to ensure compliance with the protocol. Additional neuropsychological measures and clinical assessments were administered during this visit. Participants returned for Visit 3 fourteen days later, on the 28th day of their study participation. The pill bottle and the dosage calendar were collected from each participant. Urine and blood were again obtained. Participants also participated in similar clinical and neuropsychological testing and clinical measures that were given during visit 1. The WCST assess a person’s ability to form abstract concepts, utilize feedback, and to shift and maintain set. […] The WCST involves 4 stimulus cards that vary in color, geometric form, and number. Without knowing the criterion, participants are asked to match cards from a deck to the stimulus cards. After the participant places each card, they are told whether they are correct or incorrect and should change the element they are matching based on this feedback. […] The WCST was given on the third visit of the study.

Question: Which “PANAS-C Negative Score, Mean” value ([1]; 250 mg/day, V1 (baseline)) does the source give for `C[N+](C)(C)CCOP(=O)(O)OP(=O)([O-])OC[C@H]1O[C@@H](n2ccc(N)nc2=O)[C@H](O)[C@@H]1O` [citicoline, Cytidine 5′-diphosphocholine] here?
Answer: The value was 23.15.

Question: And the “PANAS-C Positive Score, Mean” value ([1]; 250 mg/day, V1 (baseline))?
Answer: Its value is 45.74.

Question: What about the “PANAS-C Negative Score, Mean” value ([1]; 250 mg/day, V3 (day 28)) of the same compound?
Answer: The value was 19.81.

Question: What about the “PANAS-C Positive Score, Mean” value ([1]; 250 mg/day, V3 (day 28)) of the same compound?
Answer: The value was 41.93.

Question: And the “PANAS-C Negative Score, Mean” value ([1]; 250 mg/day, V3-V1)?
Answer: The value was -3.33.

Question: And the “PANAS-C Positive Score, Mean” value ([1]; 250 mg/day, V3-V1)?
Answer: Its value is -3.81.

Question: What about the “PANAS-C Negative Score, Mean” value ([1]; 500 mg/day, V1 (baseline)) of the same compound?
Answer: The value was 21.55.

Question: What about the “PANAS-C Positive Score, Mean” value ([1]; 500 mg/day, V1 (baseline)) of the same compound?
Answer: Its value is 43.30.

Question: And the “PANAS-C Negative Score, Mean” value ([1]; 500 mg/day, V3 (day 28))?
Answer: The value was 18.00.

Question: What about the “PANAS-C Positive Score, Mean” value ([1]; 500 mg/day, V3 (day 28)) of the same compound?
Answer: The value was 41.78.

Question: And the “PANAS-C Negative Score, Mean” value ([1]; 500 mg/day, V3-V1)?
Answer: Its value is -3.55.

Question: And the “PANAS-C Positive Score, Mean” value ([1]; 500 mg/day, V3-V1)?
Answer: The value was -1.52.

Question: And the “PANAS-C positive emotional attributes, between groups” value ([1]; Placebo vs 500 mg/day, visit 3, p=0.39)?
Answer: The value was “No significant effect”.

Question: And the “PSQI, Mean” value ([2]; 250 mg/day, V1 (baseline))?
Answer: Its value is 3.41.

Question: What about the “PSQI, Mean” value ([2]; 250 mg/day, V3 (day 28)) of the same compound?
Answer: Its value is 2.59.

Question: And the “PSQI Score, Mean” value ([2]; 250 mg/day)?
Answer: Its value is -0.81.

Question: And the “PSQI, Mean” value ([2]; 500 mg/day, V1 (baseline))?
Answer: Its value is 3.38.

Question: What about the “PSQI, Mean” value ([2]; 500 mg/day, V3 (day 28)) of the same compound?
Answer: Its value is 2.46.

Question: And the “PSQI Score, Mean” value ([2]; 500 mg/day)?
Answer: Its value is -0.92.

Question: And the “WCST V3 Number of Categories Achieved (Mean)” value ([3]; 250 mg/day group)?
Answer: Its value is 5.69.

Question: What about the “WCST V3 Number of Trials to Complete Category (Mean)” value ([3]; 250 mg/day group) of the same compound?
Answer: The value was 71.15.

Question: What about the “WCST V3 Number of Trials to Get into Category (Mean)” value ([3]; 250 mg/day group) of the same compound?
Answer: Its value is 15.19.

Question: What about the “WCST V3 Total Cards Used (Mean)” value ([3]; 250 mg/day group) of the same compound?
Answer: Its value is 90.88.

Question: What about the “WCST V3 Total Errors (Mean)” value ([3]; 250 mg/day group) of the same compound?
Answer: The value was 19.73.

Question: And the “WCST V3 Total Perseverative Errors (Mean)” value ([3]; 250 mg/day group)?
Answer: Its value is 8.54.

Question: And the “WCST V3 Number of Categories Achieved (Mean)” value ([3]; 500 mg/day group)?
Answer: The value was 5.87.

Question: And the “WCST V3 Number of Trials to Complete Category (Mean)” value ([3]; 500 mg/day group)?
Answer: The value was 70.57.

Question: And the “WCST V3 Number of Trials to Get into Category (Mean)” value ([3]; 500 mg/day group)?
Answer: The value was 13.78.

Question: What about the “WCST V3 Total Cards Used (Mean)” value ([3]; 500 mg/day group) of the same compound?
Answer: The value was 89.57.

Question: And the “WCST V3 Total Errors (Mean)” value ([3]; 500 mg/day group)?
Answer: Its value is 19.00.

Question: And the “WCST V3 Total Perseverative Errors (Mean)” value ([3]; 500 mg/day group)?
Answer: Its value is 9.13.

Source: US20230181614A1, “ADMINISTRATION OF CITICOLINE TO IMPROVE COGNITIVE PERFORMANCE, ATTENTIONAL PERFORMANCE, AND MOTOR FUNCTION” (KYOWA HAKKO BIO CO., LTD., priority 2014, published 2023)
